Source: patent US8546582B2, “Sulfenamide, vulcanization accelerator containing the sulfenamide for rubber, and process for producing the vulcanization accelerator” (Ouchi Shinko Chemical Industrial Co., Ltd., priority 2007, dated 2013)
Values joined by “and” are separate entries in the source; they are usually repeats but may differ in a detail not shown here. Identical values can stand only once.

Tests used:
carp = experiment: test on the degree of bioconcentration of a chemical substance in the body of fish and shellfish; assay type: in vivo; details: for Concentration ratio (times), average / Concentration ratio (times): carp; for Concentration ratio (times): single values
Protocol: For BEBS synthesized in Example 2, a test on the degree of bioconcentration of a chemical substance in the body of fish and shellfish was carried out according to “Shinki Kagaku Busshitsu To Nikakaru Shiken No Hoho Nitsuite (Circular on Test Methods of New Chemical Substances)” (Yakushokuhatsu No. 1121002 dated Nov. 21, 2003, Seikyoku No. 2 dated on Nov. 13, 2003, Kanhokihatsu No. 03121002).
Test bioconcentration: First bioconcentration area 1 μg/L • Second bioconcentration area 0.1 μg/L
Exposure duration: 22 days
Exposure method: Continuous flow-through
Analytical method: High-performance liquid chromatography

[1] = 1-octanol/water distribution coefficient by high-performance liquid chromatography (JIS Z7260-117); assay type: physicochemical; details: HPLC
Protocol: For N-methyl-N-t-butylbenzothiazole-2-sulfenamide (BMBS) synthesized in Example 1, N-ethyl-N-t-butylbenzothiazole-2-sulfenamide (BEBS) synthesized in Example 2, N-n-propyl-N-t-butylbenzothiazole-2-sulfenamide (BPBS) synthesized in Example 3, N-n-butyl-N-t-butylbenzothiazole-2-sulfenamide (BBBS) synthesized in Example 4, and N,N-dicyclohexylbenzothiazole-2-sulfenamide (DCBS) which is a conventional compound, the 1-octanol/water distribution coefficient was measured by high-performance liquid chromatography according to JIS Z7260-117.

microorganisms = details: safety checks of existing chemical substances; cited from earlier work
fish and shellfish = details: Official Bulletin of Economy, Trade and Industry, Dec. 22, 2005; cited from earlier work
[2] = stated in TRGS552 (non-patent document 3); cited from earlier work
[3] = first concentration area 1 μg/L, after 14 days
[4] = first concentration area 1 μg/L, after 22 days
[5] = second concentration area 0.1 μg/L, after 14 days
[6] = second concentration area 0.1 μg/L, after 22 days

Compound: CCCCN(Sc1nc2ccccc2s1)C(C)(C)C [BBBS, N-n-butyl-N-t-butylbenzothiazole-2-sulfenamide]
- melting point: 55 to 56 °C

Compound: CCN(Sc1nc2ccccc2s1)C(C)(C)C [BEBS, N-ethyl-N-t-butylbenzothiazole-2-sulfenamide]
- Concentration ratio (times), average (carp; [3]): 180 times
- Concentration ratio (times) (carp; [3]): 120 times and 240 times
- Concentration ratio (times), average (carp; [4]): 170 times
- Concentration ratio (times) (carp; [4]): 180 times and 170 times
- Concentration ratio (times), average (carp; [5]): 180 times
- Concentration ratio (times) (carp; [5]): 180 times and 190 times
- Concentration ratio (times), average (carp; [6]): 160 times
- Concentration ratio (times) (carp; [6]): 180 times and 130 times
- bioaccumulation or bioconcentration (carp; preliminary test, in 22 days): 180 times

Compound: CN(Sc1nc2ccccc2s1)C(C)(C)C [BMBS, N-methyl-N-t-butyl benzothiazole-2-sulfenamide]
- logPow [1]: 4.5

Compound: CCCN(Sc1nc2ccccc2s1)C(C)(C)C [BPBS, N-n-propyl-N-t-butylbenzothiazole-2-sulfenamide]
- melting point: 55 to 56 °C

Compound: c1ccc2sc(SN(C3CCCCC3)C3CCCCC3)nc2c1 [DCBS, N,N-dicyclohexylbenzothiazole-2-sulfenamide]
- degradability (microorganisms): hardly degradable
- chromatographic logP ([1]; read-out: logPow): 7.4
- concentration ratio (BCFSS) (fish and shellfish): 6000 times

Compound: CCN(N=O)C(C)(C)C [N-nitroso-N-ethyl-t-butylamine]
- carcinogenicity [2]: not carcinogenic

Compound: CN(N=O)C(C)(C)C [N-nitroso-N-methyl-t-butylamine]
- carcinogenicity [2]: not carcinogenic

Compound: CCCCN(N=O)C(C)(C)C [N-nitroso-N-n-butyl-t-butylamine]
- carcinogenicity [2]: not carcinogenic

Compound: O=NN(C1CCCCC1)C1CCCCC1 [N-nitrosodicyclohexylamine]
- carcinogenicity [2]: not carcinogenic
